How the values were obtained:
Type in all cases: biochemical
[1] = target: constitutive proteasome β5c subunit (Homo sapiens, UniProt P28074); assay: Caliper-based proteasome enzymatic activity assay, β5c; details: human recombinant constitutive proteasome 0.3 nM, FAM peptide substrate 1 μM, rt 3 h
[2] = target: immunoproteasome LMP7/B5i subunit (Homo sapiens, UniProt P28062); assay: Caliper-based proteasome enzymatic activity assay, LMP7; details: human recombinant immunoproteasome 0.3 nM, FAM peptide substrate 1 μM, rt 3 h
[3] = target: immunoproteasome LMP2 subunit (Homo sapiens, UniProt P28065); assay: Caliper-based proteasome enzymatic activity assay, LMP2; details: human recombinant immunoproteasome 0.3 nM, FAM peptide substrate 1 μM, rt 2 h

| SMILES | IC50 [1] [nM] | IC50 [2] [nM] | IC50 [3] [nM] |
| --- | --- | --- | --- |
| CN(C(=O)C(C#N)=Cc1cccc(OCCC(=O)N[C@@H](Cc2ccccc2)B(O)O)c1)c1ccccc1 [Example 22, (R)-(1-(3-(3-(2-cyano-3-(methyl(phenyl)amino)-3-oxoprop-1-en-1-yl)phenoxy)propanamido)-2-phenylethyl)boronic Acid] | 27 | 3 | 100 |
| N#CC(=Cc1cccc(OCCC(=O)N[C@@H](Cc2coc3ccccc23)B(O)O)c1)c1ccccn1 [Example 23, (R)-(2-(benzofuran-3-yl)-1-(3-(3-(2-cyano-2-(pyridin-2-yl)vinyl)phenoxy)propanamido)ethyl)boronic Acid] | 8 | 0.8 | > 5000 |
| CN(C)C(=O)C(C#N)=Cc1cccc(CCCC(=O)N[C@@H](Cc2ccccc2)B(O)O)c1 [Example 24, (R)-(1-(4-(3-(2-cyano-3-(dimethylamino)-3-oxoprop-1-en-1-yl)phenyl)butanamido)-2-phenylethyl)boronic Acid] | 1930 | 12 | 1890 |
| N#CC(=Cc1cccc(CCCC(=O)N[C@@H](Cc2ccccc2)B(O)O)c1)n1cncn1 [Example 25, (R)-(1-(4-(3-(2-cyano-2-(1H-1,2,4-triazol-1-yl)vinyl)phenyl)butanamido)-2-phenylethyl)boronic Acid] | 4150 | 8 | 3000 |
| COc1ccc(C=C(C#N)C(=O)N(C)C)cc1OCCC(=O)N[C@@H](Cc1ccccc1)B(O)O [Example 26, (R)-(1-(3-(5-(2-cyano-3-(dimethylamino)-3-oxoprop-1-en-1-yl)-2-methoxyphenoxy)propanamido)-2-phenylethyl)boronic Acid] | 34 | 4 | 310 |
| CN(C)C(=O)C(C#N)=Cc1ccc(F)c(OCCC(=O)N[C@@H](Cc2ccccc2)B(O)O)c1 [Example 27, (R)-(1-(3-(5-(2-cyano-3-(dimethylamino)-3-oxoprop-1-en-1-yl)-2-fluorophenoxy)propanamido)-2-phenylethyl)boronic Acid] | 25 | 3 | 160 |
| N#CC(=Cc1ccc(F)c(OCCC(=O)N[C@@H](Cc2ccccc2)B(O)O)c1)c1ccccn1 [Example 28, (R)-(1-(3-(5-(2-cyano-2-(pyridin-2-yl)vinyl)-2-fluorophenoxy)propanamido)-2-phenylethyl)boronic Acid] | 34 | 2 | 49 |
| COc1ccc(C=C(C#N)c2ccccn2)cc1OCCC(=O)N[C@@H](Cc1ccccc1)B(O)O [Example 29, (R)-(1-(3-(5-(2-cyano-2-(pyridin-2-yl)vinyl)-2-methoxyphenoxy)propanamido)-2-phenylethyl)boronic Acid] | 36 | 6 | 17 |
| N#CC(=Cc1cccc(OCCC(=O)N[C@@H](Cc2ccccc2)B(O)O)c1)C(=O)N1CCC1 [Example 30, (R)-(1-(3-(3-(3-(azetidin-1-yl)-2-cyano-3-oxoprop-1-en-1-yl)phenoxy)propanamido)-2-phenylethyl)boronic Acid] | 120 | 4 | 150 |
| CCNC(=O)C(C#N)=Cc1cccc(OCCC(=O)N[C@@H](Cc2ccccc2)B(O)O)c1 [Example 31, (R)-(1-(3-(3-(2-cyano-3-(ethylamino)-3-oxoprop-1-en-1-yl)phenoxy)propanamido)-2-phenylethyl)boronic Acid] | 120 | 4 | 270 |
| N#CC(=Cc1cccc(OCCC(=O)N[C@@H](Cc2ccccc2)B(O)O)c1)C(=O)N1CCN(C2COC2)CC1 [Example 32, (R)-(1-(3-(3-(2-cyano-3-(4-(oxetan-3-yl)piperazin-1-yl)-3-oxoprop-1-en-1-yl)phenoxy)propanamido)-2-phenylethyl)boronic Acid] | 60 | 4 | 180 |
| N#CC(=Cc1cccc(OCCC(=O)N[C@@H](Cc2ccccc2)B(O)O)c1)c1ccc(C(F)(F)F)cn1 [Example 33, (R)-(1-(3-(3-(2-cyano-2-(5-(trifluoromethyl)pyridin-2-yl)vinyl)phenoxy)propanamido)-2-phenylethyl)boronic Acid] | 95 | 5 | 100 |
| N#CC(=Cc1cccc(OCCC(=O)N[C@@H](Cc2ccccc2)B(O)O)c1)c1ncccc1F [Example 34, (R)-(1-(3-(3-(2-cyano-2-(3-fluoropyridin-2-yl)vinyl)phenoxy)propanamido)-2-phenylethyl)boronic Acid] | 80 | 8 | 120 |
| N#CC(=Cc1cccc(CCOC(=O)N[C@@H](Cc2ccccc2)B(O)O)c1)c1ccccn1 [Example 36, (R)-(1-(((3-(2-cyano-2-(pyridin-2-yl)vinyl)phenethoxy)carbonyl)amino)-2-phenylethyl)boronic Acid] | 320 | 8 | 3540 |
| CN(C)C(=O)C(C#N)=Cc1cccc(OCCC(=O)N[C@@H](Cc2ccccc2)B(O)O)c1F [Example 37, (R)-(1-(3-(3-(2-cyano-3-(dimethylamino)-3-oxoprop-1-en-1-yl)-2-fluorophenoxy)propanamido)-2-phenylethyl)boronic Acid] | 495 | 16.8 | 223 |
| CN(C)C(=O)C(C#N)=Cc1ccc(Cl)c(OCCC(=O)N[C@@H](Cc2ccccc2)B(O)O)c1Cl [Example 38, (R)-(1-(3-(2,6-dichloro-3-(2-cyano-3-(dimethylamino)-3-oxoprop-1-en-1-yl)phenoxy)propanamido)-2-phenylethyl)boronic Acid] | 162 | 7.3 | 223 |
| N#CC(=Cc1ccc(Cl)c(OCCC(=O)N[C@@H](Cc2ccccc2)B(O)O)c1Cl)c1ccccn1 [Example 39, (R)-(1-(3-(2,6-dichloro-3-(2-cyano-2-(pyridin-2-yl)vinyl)phenoxy)propanamido)-2-phenylethyl)boronic Acid] | 136 | 14 | 325 |
| N#CC(=Cc1cccc(OCCC(=O)N[C@@H](Cc2ccccc2)B(O)O)c1F)c1ccccn1 [Example 40, (R)-(1-(3-(3-(2-cyano-2-(pyridin-2-yl)vinyl)-2-fluorophenoxy)propanamido)-2-phenylethyl)boronic Acid] | 70 | 8.5 | 73.9 |
| CN(C)C(=O)C(C#N)=Cc1cc(F)cc(OCCC(=O)N[C@@H](Cc2ccccc2)B(O)O)c1 [Example 41, (R)-(1-(3-(3-(2-cyano-3-(dimethylamino)-3-oxoprop-1-en-1-yl)-5-fluorophenoxy)propanamido)-2-phenylethyl)boronic Acid] | 176 | 4.1 | 320 |
| CN(C)C(=O)C(C#N)=Cc1cc(OCCC(=O)N[C@@H](Cc2ccccc2)B(O)O)ccc1F [Example 42, (R)-(1-(3-(3-(2-cyano-3-(dimethylamino)-3-oxoprop-1-en-1-yl)-4-fluorophenoxy)propanamido)-2-phenylethyl)boronic Acid] | 192 | 6 | 393 |
| N#CC(=Cc1cc(OCCC(=O)N[C@@H](Cc2ccccc2)B(O)O)ccc1F)c1ccccn1 [Example 43, (R)-(1-(3-(3-(2-cyano-2-(pyridin-2-yl)vinyl)-4-fluorophenoxy)propanamido)-2-phenylethyl)boronic Acid] | 39.4 | 2.9 | 122 |
| Cc1ccc(C[C@H](NC(=O)CCOc2cccc(C=C(C#N)C(=O)N(C)C)c2)B(O)O)c(C)c1 [Example 44, (R)-(1-(3-(3-(2-cyano-3-(dimethylamino)-3-oxoprop-1-en-1-yl)phenoxy)propanamido)-2-(2,4-dimethylphenyl)ethyl)boronic Acid] | 388 | 2.1 | 3130 |
| Cc1ccc(C[C@H](NC(=O)CCOc2cccc(C=C(C#N)c3ccccn3)c2)B(O)O)c(C)c1 [Example 45, (R)-1-(3-(3-(2-cyano-2-(pyridin-2-yl)vinyl)phenoxy)propanamido)-2-(2,4-dimethylphenyl)ethylboronic Acid] | 92.7 | 4.3 | 1250 |
| COCCNC(=O)C(C#N)=Cc1cccc(OCCC(=O)N[C@@H](Cc2ccccc2)B(O)O)c1 [Example 46, (R)-(1-(3-(3-(2-cyano-3-((2-methoxyethyl)amino)-3-oxoprop-1-en-1-yl)phenoxy)propanamido)-2-phenylethyl)boronic Acid] | 141 | 4.6 | 370 |
| COCC(C)(C)NC(=O)C(C#N)=Cc1cccc(OCCC(=O)N[C@@H](Cc2ccccc2)B(O)O)c1 [Example 47, (R)-(1-(3-(3-(2-cyano-3-((1-methoxy-2-methylpropan-2-yl)amino)-3-oxoprop-1-en-1-yl)phenoxy)propanamido)-2-phenylethyl)boronic Acid] | 72.2 | 5.3 | 438 |
| COC(C)(C)CNC(=O)C(C#N)=Cc1cccc(OCCC(=O)N[C@@H](Cc2ccccc2)B(O)O)c1 [Example 48, (R)-(1-(3-(3-(2-cyano-3-((2-methoxy-2-methylpropyl)amino)-3-oxoprop-1-en-1-yl)phenoxy)propanamido)-2-phenylethyl)boronic Acid] | 90.4 | 5.1 | 415 |
| CN(C)C(=O)C(C#N)=Cc1cccc(COCC(=O)N[C@@H](Cc2ccccc2)B(O)O)c1 [Example 49, (R)-(1-(2-((3-(2-cyano-3-(dimethylamino)-3-oxoprop-1-en-1-yl)benzyl)oxy)acetamido)-2-phenylethyl)boronic Acid] | 1130 | 4.9 | 2900 |
| COc1cccnc1C(C#N)=Cc1cccc(OCCC(=O)N[C@@H](Cc2ccccc2)B(O)O)c1 [Example 51, (R)-(1-(3-(3-(2-cyano-2-(3-methoxypyridin-2-yl)vinyl)phenoxy)propanamido)-2-phenylethyl)boronic Acid] | 122 | 20.2 | 306 |

Reference: US12024531B2, “Immunoproteasome inhibitors” (Principia Biopharma Inc., priority 2017, dated 2024)
